Entries after “also recorded” stand apart in the source; their conditions may differ.
Legend:
HDAC4, 5, 6, 7, and 8 = conditions: cited from earlier work
H3K27ac = test: Quantitative Western blot of H3K27ac (euchromatin) in retina of photobleached dKO mice; type: in vivo, mouse; conditions: 60 mg/kg bw intraperitoneal 30 min prior to light exposure, 1 d post-bleach
Description: (§1) Male and female Abca4^−/−Rdh8^−/− mice at 6 to 8 weeks of age were used for the current study. These mice were maintained on a pigmented C57BL/6 background, and age-matched C57BL/6 mice from The Jackson Laboratory were used as wild-type controls. All mice were housed and maintained in a 12-hour light (≤150 lux)/12-hour dark cyclic environment in the University Laboratory Animal Resources center at the University of California, Irvine (UCI) School of Medicine. Bright light-induced retinal damage was generated by exposing photosensitive Abca4^−/−Rdh8^−/− mice to white light delivered at 10,000 lux (150-W spiral lamp, Commercial Electric, Cleveland, OH) for 30 min. Mice were dark-adapted 24 h prior to photobleaching, and pupils were dilated with 1% ophthalmic tropicamide 30 min prior to light exposure. […] All animal handling procedures and experimental protocols were approved by the Institutional Animal Care and Use Committee at UCI and conformed to recommendations of both the American Veterinary Medical Association (AVMA) Panel on Euthanasia and the Association for Research in Vision and Ophthalmology.
(§2) Fresh retina and RPE were harvested from study mice as described previously. […] The blots were imaged, and IR signals were quantified using a LI-COR Odyssey Fc imaging system.

[1] = tested on: Abca4−/−Rdh8−/− (dKO) mice; test: SLO and OCT imaging of bright light-induced retinal damage; type: in vivo, mouse; conditions: 60 mg/kg bw intraperitoneal, 7 d after photobleaching
Description: Male and female Abca4^−/−Rdh8^−/− mice at 6 to 8 weeks of age were used for the current study. These mice were maintained on a pigmented C57BL/6 background, and age-matched C57BL/6 mice from The Jackson Laboratory were used as wild-type controls. All mice were housed and maintained in a 12-hour light (≤150 lux)/12-hour dark cyclic environment in the University Laboratory Animal Resources center at the University of California, Irvine (UCI) School of Medicine. Bright light-induced retinal damage was generated by exposing photosensitive Abca4^−/−Rdh8^−/− mice to white light delivered at 10,000 lux (150-W spiral lamp, Commercial Electric, Cleveland, OH) for 30 min. Mice were dark-adapted 24 h prior to photobleaching, and pupils were dilated with 1% ophthalmic tropicamide 30 min prior to light exposure. […]
Mice were anesthetized by intraperitoneal injection of ketamine (20 mg/mL) with xylazine (1.75 mg/mL) at a dose of 5 μL/g bw, and pupils were dilated with 1% tropicamide prior to imaging. […] For quantitative measurements of photoreceptor viability, ONL thickness was measured in the InVivoVue software at a distance of 0.45 mm from the optic nerve head in the temporal retina, where the most severe damage is found in bright light-exposed Abca4^−/−Rdh8^−/− mice. […]

H3K9me3 [2] = test: Quantitative Western blot of H3K9me3 (heterochromatin) in RPE/choroid of bleached dKO mice; type: in vivo, mouse; conditions: 60 mg/kg bw intraperitoneal 30 min prior to light exposure, 1 d post-bleach
Description: as §1, §2

H3K9me3 [3] = test: Immunohistochemistry of H3K9me3 in retinal cross-sections of photobleached dKO mice; type: in vivo, mouse; conditions: 60 mg/kg bw intraperitoneal, 1 d after photobleaching, vs DMSO vehicle
Description: as §1
Mice were euthanized in a CO2 chamber prior to enucleation. […] Fluorescence microscopy images were obtained on a Keyence BZ-X810 fluorescent microscope.

HDAC = conditions: with exception for HDAC6; read-out: IC50 pan-HDAC; cited from earlier work
HDACs 6 and 7 = conditions: cited from earlier work
HDACs 2, 4, 10, and 11 = conditions: cited from earlier work
other HDACs = conditions: cited from earlier work
[4] = tested on: HDAC11 substrate, serine hydroxymethyl transferase 2; conditions: cited from earlier work
HDAC11 = target: T1, HDAC11 (Homo sapiens, UniProt Q96DB2); conditions: mammalian HDAC11; cited from earlier work
T1 sequence (Q96DB2 1-347): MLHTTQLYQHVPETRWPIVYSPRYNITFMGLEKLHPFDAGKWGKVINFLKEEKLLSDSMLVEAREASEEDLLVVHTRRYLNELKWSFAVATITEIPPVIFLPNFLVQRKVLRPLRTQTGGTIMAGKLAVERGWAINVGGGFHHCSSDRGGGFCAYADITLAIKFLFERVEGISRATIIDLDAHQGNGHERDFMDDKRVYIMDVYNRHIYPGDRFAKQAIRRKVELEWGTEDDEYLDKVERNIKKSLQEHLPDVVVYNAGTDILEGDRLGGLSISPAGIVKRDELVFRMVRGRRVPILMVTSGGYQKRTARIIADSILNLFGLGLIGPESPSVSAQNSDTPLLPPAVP

Nc1ccccc1NC(=O)c1ccc(CNc2nccc(-c3cccnc3)n2)cc1 [Mocetinostat]
Activity to HDAC4, 5, 6, 7, and 8 (HDAC4, 5, 6, 7, and 8): no activity
Euchromatin abundance (H3K27ac) in retina (H3K27ac): rescues the stress-induced reduction in euchromatin abundance
Stress-induced retinal pathology by SLO and OCT (ONL thickness) [1]: sufficient to ameliorate stress-induced retinal pathology; also recorded: ameliorated

COc1cc(OC)c(-c2cn3ccc(N4CC[C@H](NCc5ccncc5)C4)cc3n2)cc1Cl [OTS186935, (S)-1-(2-(5-chloro-2,4-dimethoxyphenyl)imidazo[1,2-a]pyridin-7-yl)-N-(pyridin-4-ylmethyl)pyrrolidin-3-amine]
Heterochromatin abundance (H3K9me3) in RPE/choroid (H3K9me3 [2]): attenuates the stress-induced increase in heterochromatin abundance
H3K9me3 signal in retinal cross-sections (immunohistochemistry) (H3K9me3 [3]): attenuated
Stress-induced retinal pathology by SLO and OCT (ONL thickness) [1]: sufficient to ameliorate stress-induced retinal pathology; also recorded: ameliorated

CCCCc1nc2cc(/C=C/C(=O)NO)ccc2n1CCN(CC)CC [Pracinostat]
IC50 (HDAC): 0.04 to 0.14 µM

Cn1cc(CNCC2CCN(c3ncc(C(=O)NO)cn3)CC2)c2ccccc21 [Quisinostat]
Potency to HDACs 6 and 7 (HDACs 6 and 7): lowest potency
Potency to HDACs 2, 4, 10, and 11 (HDACs 2, 4, 10, and 11): modest potent

CCCCCCCCCCCCCCCCNNC(=O)c1cccs1 [SIS17]
Inhibition of other HDACs (other HDACs): without inhibiting other HDACs
Demyristoylation of serine hydroxymethyl transferase 2 [4]: inhibits the demyristoylation
IC50 (HDAC11): 0.83 µM

— patent publication US12708616B2, “Compositions and methods of treating age-related retinal dysfunction” (THE REGENTS OF THE UNIVERSITY OF CALIFORNIA, priority 2020, dated 2026)
